Structures can show the parent of a compound that is named as a salt. Where two headings read alike, the source gives them in different places.
Experiments:
[1] = target: T1, human M3 receptor (Homo sapiens, UniProt P20309); assay: Test for binding to human M3 receptor
T1 construct: expressed in transfected cells; host or cells: CHO cells
Protocol: A solution of cryopreserved CHO cells expressing human M3 receptor was diluted with a buffer (50 mM tris-hydrochloride containing 0.5 mM of EDTA, pH 7.4) to obtain 5.0×10^5 of cells/mL and used as a crude membrane sample.
[N-methyl-^3H]-(−)-Scopolamine methyl chloride (GE Healthcare Japan Corporation) was diluted with 50 mM of tris-hydrochloride containing 0.5 mM of EDTA (pH 7.4), a test substance and 250 μL of the crude membrane sample solution were added to 250 μL of the mixture, and the mixture was incubated at room temperature for 60 minutes. […] The glass fiber filter paper was pretreated with a 0.1% polyethylenimine solution for 4 hours or longer to minimize non-specific binding. The filter collecting membrane components was transferred to a small-size plastic vial containing 3 mL of Pico-Fluor, and the radioactivity was measured with a liquid scintillation counter (Tri-Carb 2900TR or 2300TR; Perkin Elmer).
The effect of binding to the M3 receptor was calculated as the affinity (Ki) of the test substance for the M3 receptor from a 50% binding dose (IC50) and the affinity (Kd) of [N-methyl-^3H]-(−)-Scopolamine methyl chloride for the M3 receptor.

[2] = target: T2, human NK2 receptor (Homo sapiens, UniProt P21452); assay: Test for binding to human NK2 receptor
T2 construct: expressed in transfected cells; host or cells: COS cells
T2 sequence (P21452 1-398): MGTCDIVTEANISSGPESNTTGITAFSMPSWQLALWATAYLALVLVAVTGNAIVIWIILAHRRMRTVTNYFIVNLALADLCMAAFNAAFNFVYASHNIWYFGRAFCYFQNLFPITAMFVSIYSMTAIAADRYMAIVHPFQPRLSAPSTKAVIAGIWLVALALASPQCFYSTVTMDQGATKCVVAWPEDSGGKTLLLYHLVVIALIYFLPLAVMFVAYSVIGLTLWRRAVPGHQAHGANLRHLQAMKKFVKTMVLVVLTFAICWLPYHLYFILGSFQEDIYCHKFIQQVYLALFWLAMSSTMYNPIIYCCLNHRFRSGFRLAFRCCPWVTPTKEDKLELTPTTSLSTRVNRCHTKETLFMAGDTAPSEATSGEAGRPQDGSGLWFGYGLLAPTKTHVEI
Protocol: A solution of cryopreserved COS cells expressing human NK2 receptor was diluted with a buffer (50 mM tris-hydrochloride containing 0.04% of bovine serum albumin [BSA], pH 7.4) to obtain a concentration of 5.0×10^5 cells/mL and used as a crude membrane sample.
[^3H]SR 48968 (GE Healthcare Japan Corporation) was diluted with a mixture of 50 mM of tris-hydrochloride (pH 7.4), 6 mM of manganese chloride tetrahydrate, 800 μg/mL of BSA, 8 μg/mL of chymostatin, 8 μg/mL of leupeptin, 80 μg/mL of bacitracin, and 20 μg/mL of phosphoramidon. […] After the reaction, the membrane components were collected on a GF/B glass fiber filter paper (Whatman; Biomedical Research and Development Laboratories, Inc.) with an automated filtration system (Brandel; Biomedical Research and Development Laboratories, Inc.). The glass fiber filter paper was pretreated with a 0.1% polyethylenimine solution for 4 hours or longer to minimize non-specific binding. The filter collecting the membrane components was transferred to a small-size plastic vial containing 3 mL of Pico-Fluor, and the radioactivity was measured with a liquid scintillation counter (Tri-Carb 2900TR or 2300TR; Perkin Elmer).
The effect of binding to the NK2 receptor was calculated as the affinity (Ki) of the test substance for the NK2 receptor from a 50% binding dose (IC50) and the affinity (Kd) of [^3H]SR 48968 for the NK2 receptor.

[3] = target: T3, substance P receptor (Cavia porcellus, UniProt P30547); assay: Test for binding to guinea-pig substance P receptor (crude lung membrane sample); conditions: crude guinea-pig lung membrane sample, [3H]substance P; Ki from IC50 and Kd; read-out: Ki
T3 construct: A preparation of a crude lung membrane sample was prepared; from tissue; host or cells: guinea-pig lung (crude membrane sample)
Protocol: A preparation of a crude lung membrane sample was prepared, and a test for binding of a test substance to the sample was performed according to the method described in EP0336230A2.
The binding effect of the test substance to a substance P receptor was calculated as an affinity (Ki) of the test substance for the substance P receptor from a 50% binding concentration (IC50) and an affinity (Kd) of [^3H]substance P for the substance P receptor.

[4] = CHO cells expressing human M3 receptor, [N-methyl-3H]-(-)-Scopolamine methyl chloride 0.5 nM, Ki from IC50 and Kd, read-out: Ki
[5] = COS cells expressing human NK2 receptor, [3H]SR 48968 1 nM, Ki from IC50 and Kd, read-out: Ki

T1 sequence (P20309 whole entry): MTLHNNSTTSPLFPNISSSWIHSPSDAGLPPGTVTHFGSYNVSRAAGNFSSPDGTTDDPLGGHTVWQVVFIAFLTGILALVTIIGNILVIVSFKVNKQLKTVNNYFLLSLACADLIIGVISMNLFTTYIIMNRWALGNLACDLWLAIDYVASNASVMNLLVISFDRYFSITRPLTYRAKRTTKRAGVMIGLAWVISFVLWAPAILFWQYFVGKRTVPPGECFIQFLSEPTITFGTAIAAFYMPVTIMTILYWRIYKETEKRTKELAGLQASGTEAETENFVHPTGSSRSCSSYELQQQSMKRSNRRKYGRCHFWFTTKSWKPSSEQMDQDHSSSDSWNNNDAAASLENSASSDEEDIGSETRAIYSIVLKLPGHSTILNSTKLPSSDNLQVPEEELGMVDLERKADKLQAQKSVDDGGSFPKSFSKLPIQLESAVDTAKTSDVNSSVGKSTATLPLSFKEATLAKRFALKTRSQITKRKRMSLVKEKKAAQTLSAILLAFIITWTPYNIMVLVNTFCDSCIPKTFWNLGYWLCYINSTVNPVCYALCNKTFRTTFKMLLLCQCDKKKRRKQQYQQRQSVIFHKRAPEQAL
T3 sequence (P30547 whole entry): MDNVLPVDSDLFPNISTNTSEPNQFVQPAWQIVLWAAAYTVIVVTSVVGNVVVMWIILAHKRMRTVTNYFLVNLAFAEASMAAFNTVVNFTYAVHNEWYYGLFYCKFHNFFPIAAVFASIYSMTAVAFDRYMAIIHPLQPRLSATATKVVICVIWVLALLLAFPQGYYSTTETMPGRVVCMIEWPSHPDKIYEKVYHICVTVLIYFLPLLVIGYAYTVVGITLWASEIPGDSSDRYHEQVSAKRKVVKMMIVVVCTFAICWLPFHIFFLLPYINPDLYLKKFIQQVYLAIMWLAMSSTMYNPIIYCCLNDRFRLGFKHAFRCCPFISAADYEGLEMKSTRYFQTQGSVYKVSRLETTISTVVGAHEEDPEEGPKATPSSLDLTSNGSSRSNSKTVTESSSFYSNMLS

SMILES	Ki [1, 4] [nM]	Ki [2, 5] [nM]	Ki [3] [nM]	Ki [1] [nM]	Ki [2] [nM]
CN(CCN1CCC(OC(=O)Nc2ccccc2-c2ccccc2)CC1)C(=O)CCCCCNCc1ccc(C(=O)N(C)CCCN(C)C(=O)CO[C@H]2Cc3ccccc3C23CCN(CC[C@@]2(c4ccc(F)cc4)CN(C(=O)c4cc(C(F)(F)F)cc(C(F)(F)F)c4)CO2)CC3)nc1 [Example 7, 1-{2-[{6-[({6-[{3-[({[(2S)-1′-{2-[(5R)-3-[3,5-Bis(trifluoromethyl)benzoyl]-5-(4-fluorophenyl)-1,3-oxazolidin-5-yl]ethyl}-2,3-dihydrospiro[indene-1,4′-piperidin]-2-yl]oxy}acetyl)(methy)amino]propyl}(methyl)carbamoyl]pyridin-3-yl}methyl)amino]hexanoyl}(methyl)amino]ethyl}piperidin-4-yl biphenyl-2-ylcarbamate]	0.9	0.17	0.57	–	–
Cc1cc(NCCCCCC(=O)N(C)CCN2CCC(OC(=O)Nc3ccccc3-c3ccccc3)CC2)sc1C(=O)N(C)CCN(C)C(=O)CO[C@H]1Cc2ccccc2C12CCN(CC[C@@]1(c3ccc(F)cc3)CN(C(=O)c3cc(C(F)(F)F)cc(C(F)(F)F)c3)CO1)CC2 [Example 89, 1-(2-{[6-({5-[{2-[({[(2S)-1′-{2-[(5R)-3-[3,5-Bis(trifluoromethyl)benzoyl]-5-(4-fluorophenyl)-1,3-oxazolidin-5-yl]ethyl}-2,3-dihydrospiro[indene-1,4′-piperidin]-2-yl]oxy}acetyl)(methyl)amino]ethyl}(methyl)carbamoyl]-4-methyl-2-thienyl}amino)hexanoyl](methyl)amino}ethyl)piperidin-4-yl biphenyl-2-ylcarbamate]	1.2	0.75	0.74	–	–
CN(CCCCCC(=O)N(C)CCN1CCC(OC(=O)Nc2ccccc2-c2ccccc2)CC1)Cc1cccc(C(=O)N(C)CCCN(C)C(=O)CO[C@H]2Cc3ccccc3C23CCN(CC[C@@]2(c4ccc(F)cc4)CN(C(=O)c4cc(C(F)(F)F)cc(C(F)(F)F)c4)CO2)CC3)c1 [Example 41, 1-{2-[{6-[{3-[{3-[({[(2S)-1′-{2-[(5R)-3-[3,5-Bis(trifluoromethyl)benzoyl]-5-(4-fluorophenyl)-1,3-oxazolidin-5-yl]ethyl}-2,3-dihydrospiro[indene-1,4′-piperidin]-2-yl]oxy}acetyl)(methyl)amino]propyl}(methyl)carbamoyl]benzyl}(methyl)amino]hexanoyl}(methyl)amino]ethyl}piperidin-4-yl biphenyl-2-ylcarbamate trihydrochloride]	–	–	0.96	1.4	0.26
Cc1nc(NCCCCCC(=O)N(C)CCN2CCC(OC(=O)Nc3ccccc3-c3ccccc3)CC2)sc1C(=O)N(C)CCN(C)C(=O)CO[C@H]1Cc2ccccc2C12CCN(CC[C@@]1(c3ccc(F)cc3)CN(C(=O)c3cc(C(F)(F)F)cc(C(F)(F)F)c3)CO1)CC2 [Example 107, 1-(2-{[6-({5-[{2-[({[(2S)-1′-{2-[(5R)-3-[3,5-Bis(trifluoromethyl)benzoyl]-5-(4-fluorophenyl)-1,3-oxazolidin-5-yl]ethyl}-2,3-dihydrospiro[indene-1,4′-piperidin]-2-yl]oxy}acetyl)(methyl)amino]ethyl}(methyl)carbamoyl]-4-methyl-1,3-thiazol-2-yl}amino)hexanoyl](methyl)amino}ethyl)piperidin-4-yl biphenyl-2-ylcarbamate trihydrochloride]	–	–	1.2	1.4	0.59
CN(CCN1CCC(OC(=O)Nc2ccccc2-c2ccccc2)CC1)C(=O)CCCCCN(C)c1ccc(C(=O)N(C)CCCN(C)C(=O)CO[C@H]2Cc3ccccc3C23CCN(CC[C@@]2(c4ccc(F)cc4)CN(C(=O)c4cc(C(F)(F)F)cc(C(F)(F)F)c4)CO2)CC3)s1 [Example 8, 1-{2-[{6-[{5-[{3-[({[(2S)-1′-{2-[(5R)-3-[3,5-Bis(trifluoromethyl)benzoyl]-5-(4-fluorophenyl)-1,3-oxazolidin-5-yl]ethyl}-2,3-dihydrospiro[indene-1,4′-piperidin]-2-yl]oxy}acetyl)(methyl)amino]propyl}(methyl)carbamoyl]-2-thienyl}(methyl)amino]hexanoyl}(methyl)amino]ethyl}piperidin-4-yl biphenyl-2-ylcarbamate]	1.9	0.38	2.6	–	–
CN(CCN1CCC(OC(=O)Nc2ccccc2-c2ccccc2)CC1)C(=O)CCCCCCNc1ccc(C(=O)N(C)CCCN(C)C(=O)CO[C@H]2Cc3ccccc3C23CCN(CC[C@@]2(c4ccc(F)cc4)CN(C(=O)c4cc(C(F)(F)F)cc(C(F)(F)F)c4)CO2)CC3)cc1.Cl.Cl.Cl [Example 39, 1-(2-{[7-({4-[{3-[({[(2S)-1′-{2-[(5R)-3-[3,5-Bis(trifluoromethyl)benzoyl]-5-(4-fluorophenyl)-1,3-oxazolidin-5-yl]ethyl}-2,3-dihydrospiro[indene-1,4′-piperidin]-2-yl]oxy}acetyl)(methyl)amino]propyl}methyl)carbamoyl]phenyl}amino)heptanoyl](methyl)amino}ethyl)piperidin-4-yl biphenyl-2-ylcarbamate trihydrochloride]	1.4	0.82	1.2	–	–
CN(CCN1CCC(OC(=O)Nc2ccccc2-c2ccccc2)CC1)C(=O)CCCCCNc1ccc(NC(=O)CCCN(C)C(=O)CO[C@H]2Cc3ccccc3C23CCN(CC[C@@]2(c4ccc(F)cc4)CN(C(=O)c4cc(C(F)(F)F)cc(C(F)(F)F)c4)CO2)CC3)cc1 [Example 82, 1-{2-[(6-{[4-({4-[({[(2S)-1′-{2-[(5R)-3-[3,5-Bis(trifluoromethyl)benzoyl]-5-(4-fluorophenyl)-1,3-oxazolidin-5-yl]ethyl}-2,3-dihydrospiro[indene-1,4′-piperidin]-2-yl]oxy}acetyl)(methyl)amino]butanoyl}amino)phenyl]amino}hexanoyl)(methyl)amino]ethyl}piperidin-4-yl biphenyl-2-ylcarbamate trihydrochloride]	–	–	4.5	1.6	0.6
CN(CCCCCC(=O)N(C)CCN1CCC(OC(=O)Nc2ccccc2-c2ccccc2)CC1)Cc1ccc(C(=O)N(C)CCCN(C)C(=O)CO[C@H]2Cc3ccccc3C23CCN(CC[C@@]2(c4ccc(F)cc4)CN(C(=O)c4cc(C(F)(F)F)cc(C(F)(F)F)c4)CO2)CC3)nc1 [Example 5, 1-{2-[{6-[({6-[{3-[({[(2S)-1′-{2-[(5R)-3-[3,5-Bis(trifluoromethyl)benzoyl]-5-(4-fluorophenyl)-1,3-oxazolidin-5-yl]ethyl}-2,3-dihydrospiro[indene-1,4′-piperidin]-2-yl]oxy}acetyl)(methyl)amino]propyl}(methyl)carbamoyl]pyridin-3-yl}methyl)(methyl)amino]hexanoyl}(methyl)amino]ethyl}piperidin-4-yl biphenyl-2-ylcarbamate]	0.69	0.48	1.5	–	–

Source: patent US8476253B2, “Amide derivative” (Daiichi Sankyo Company, Limited, priority 2009, dated 2013)
